According to PubChem BioAssay (NCI):
Values joined by “and” are separate entries in the source; they are usually repeats but may differ in a detail not shown here. Equal values may be shown once.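 Dose response: 5 concentrations. Exposure: 48 h. Format: 96-well plates. Endpoint: linear interpolation; highest concentration if not reached. GI50 = concentration required for 50% inhibition of growth. TGI is the concentration that stops growth completely.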

Columns and labels:
Experiment in all cases: growth of human tumour cells (NCI), 48 h
DU-145 prostate = system: DU-145 prostate
K-562 leukemia = system: K-562 leukemia
OVCAR-3 ovarian = system: OVCAR-3 ovarian
MDA-MB-435 = system: MDA-MB-435
OVCAR-8 ovarian = system: OVCAR-8 ovarian
HL-60(TB) leukemia = system: HL-60(TB) leukemia
786-0 renal = system: 786-0 renal
EKVX NSCLC = system: EKVX NSCLC
RXF 393 renal = system: RXF 393 renal
NCI-H23 lung = system: NCI-H23 lung
MCF7 breast = system: MCF7 breast
HCT-116 colon = system: HCT-116 colon
MALME-3M melanoma = system: MALME-3M melanoma
HCC-2998 colon = system: HCC-2998 colon
HOP-62 NSCLC = system: HOP-62 NSCLC
MDA-MB-231 breast = system: MDA-MB-231 breast
SNB-75 CNS = system: SNB-75 CNS
RPMI-8226 leukemia = system: RPMI-8226 leukemia
OVCAR-5 ovarian = system: OVCAR-5 ovarian
CCRF-CEM leukemia = system: CCRF-CEM leukemia
NCI-H460 lung = system: NCI-H460 lung
MOLT-4 leukemia = system: MOLT-4 leukemia
CAKI-1 renal = system: CAKI-1 renal
UO-31 renal = system: UO-31 renal
HCT-15 colon = system: HCT-15 colon
SK-MEL-2 melanoma = system: SK-MEL-2 melanoma
SF-268 CNS = system: SF-268 CNS
LOX IMVI melanoma = system: LOX IMVI melanoma
SK-MEL-5 melanoma = system: SK-MEL-5 melanoma

## O=C(NNc1nc2cc(F)cc(F)c2n2cccc12)c1cccnn1
DU-145 prostate
  GI50: 507 nM and 371 nM
  TGI: 6230 nM and 4080 nM
K-562 leukemia
  GI50: 817 nM and 263 nM
OVCAR-3 ovarian
  GI50: 234 nM and 128 nM
  TGI: 5190 nM and 10700 nM
MDA-MB-435
  GI50: 1270 nM and 599 nM
  TGI: 30000 nM and 15800 nM
OVCAR-8 ovarian
  GI50: 362 nM and 246 nM
  TGI: 30000 nM and > 100000 nM
HL-60(TB) leukemia
  GI50: 765 nM and 259 nM
786-0 renal
  GI50: 208 nM and 261 nM
  TGI: 2460 nM and 6240 nM
EKVX NSCLC
  GI50: 350 nM and 164 nM
  TGI: 13300 nM and 3260 nM
RXF 393 renal
  GI50: 865 nM and 242 nM
  TGI: 3610 nM and 2170 nM
NCI-H23 lung
  GI50: 575 nM
  TGI: > 100000 nM
MCF7 breast
  GI50: 453 nM and 260 nM
  TGI: 5670 nM and 2560 nM
HCT-116 colon
  GI50: 151 nM
  TGI: 916 nM
MALME-3M melanoma
  GI50: 784 nM and 1020 nM
  TGI: 6180 nM and 5970 nM
HCC-2998 colon
  GI50: 612 nM and 436 nM
  TGI: 11300 nM and 18000 nM
HOP-62 NSCLC
  GI50: 206 nM and 67.7 nM
  TGI: 4770 nM and 5250 nM
MDA-MB-231 breast
  GI50: 820 nM and 784 nM
  TGI: 10300 nM and > 100000 nM
SNB-75 CNS
  TGI: 17900 nM and 7790 nM
RPMI-8226 leukemia
  GI50: 716 nM and 286 nM
  TGI: 30000 nM and 3060 nM
OVCAR-5 ovarian
  GI50: 847 nM and 1390 nM
  TGI: 30000 nM and 31600 nM
CCRF-CEM leukemia
  GI50: 163 nM and 43.2 nM
NCI-H460 lung
  GI50: 147 nM and 61 nM
  TGI: 3470 nM and 1280 nM
MOLT-4 leukemia
  GI50: 186 nM and 167 nM
CAKI-1 renal
  GI50: 291 nM and 183 nM
  TGI: 4960 nM and 5280 nM
UO-31 renal
  GI50: 118 nM and 51.9 nM
  TGI: 3630 nM and 1770 nM
HCT-15 colon
  GI50: 124 nM and 48.3 nM
  TGI: 13500 nM and > 100000 nM
SK-MEL-2 melanoma
  GI50: 1330 nM and 1170 nM
  TGI: 19800 nM and 26200 nM
SF-268 CNS
  GI50: 359 nM and 209 nM
  TGI: 30000 nM and 11400 nM
LOX IMVI melanoma
  GI50: 295 nM
  TGI: 3570 nM
SK-MEL-5 melanoma
  GI50: 504 nM and 312 nM
  TGI: 4950 nM and 2390 nM
